The text below walks through data of PubChem BioAssay (NCI).

Test systems include TK-10 renal; NCI/ADR-RES ovarian; ACHN renal; HS 578T breast; A549 NSCLC; SF-268 CNS; MDA-MB-231 breast; MOLT-4 leukemia; UACC-62 melanoma; BT-549 breast.
Assay in all cases: growth of human tumour cells (NCI), 48 h

SMILES strings stand for the structures. Several values for one entry are separate records, joined by “and”; a condition that tells them apart may be missing. Identical values can stand only once.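 Assay format: 96-well plates, 48-hour exposure. GI50 is the concentration that inhibits growth by half. The concentration for full growth arrest is given as TGI.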 Bounds are passed on as bounds.

With `N#Cc1c(NC(=O)CN2CCOCC2)sc2c1CCCC2`, the GI50 in the test on TK-10 renal, in the test with NCI/ADR-RES ovarian, in the test on ACHN renal, in the test on HS 578T breast, with A549 NSCLC and in the test on SF-268 CNS was more than 25 µM each time. Moreover, the GI50 in the test on MDA-MB-231 breast, in the test on MOLT-4 leukemia, in the test with UACC-62 melanoma and in the test on BT-549 breast was more than 25 µM in each case. Also, the TGI in the test on TK-10 renal, in the test with NCI/ADR-RES ovarian, in the test with ACHN renal, in the test on HS 578T breast, in the test with A549 NSCLC and with SF-268 CNS was more than 25 µM in each case. Moreover, the TGI in the test with MDA-MB-231 breast, in the test on MOLT-4 leukemia, in the test on UACC-62 melanoma and in the test on BT-549 breast was more than 25 µM in each case.

As to `CNc1ccc(-c2cc(=O)oc3ccc(Cl)cc23)cc1`, the GI50 with TK-10 renal was 0.702 µM and 0.21 µM; in the test on NCI/ADR-RES ovarian, 0.0371 µM and 0.0363 µM; in the test with ACHN renal, 0.104 µM and 0.0558 µM; in the test on HS 578T breast it was 0.083 µM and 0.0725 µM; in the test with A549 NSCLC, 0.137 µM and 0.0856 µM; in the test on SF-268 CNS, 0.247 µM and 0.066 µM. Besides, the GI50 with MDA-MB-231 breast is 1.07 µM and 0.424 µM; in the test with MOLT-4 leukemia it was 0.108 µM and 0.0626 µM; in the test with UACC-62 melanoma, 0.0369 µM and 0.0431 µM; in the test with BT-549 breast, 0.102 µM and 0.044 µM. The TGI was more than 100 µM with TK-10 renal; more than 100 µM with ACHN renal; more than 100 µM with A549 NSCLC; more than 100 µM with SF-268 CNS; more than 100 µM in the test with MDA-MB-231 breast; 50.1 µM in the test on MOLT-4 leukemia. For the same compound, the TGI came to 89.7 µM in the test on UACC-62 melanoma and 3.02 µM in the test on BT-549 breast.

As to `C=C(C)[C@@H]1CCC2=C[C@@H](OC2=O)[C@@H](C(=C)C)C(=O)/C=C(/C)C(=O)C1`, the GI50 in the test with TK-10 renal is 31.3 µM; in the test on NCI/ADR-RES ovarian it was 37 µM; in the test on ACHN renal, 37.3 µM; in the test with HS 578T breast, 35.1 µM; in the test with A549 NSCLC, 36.9 µM; in the test with SF-268 CNS, 30 µM. The GI50 in the test on MDA-MB-231 breast was 45.2 µM; with MOLT-4 leukemia, 14 µM; with UACC-62 melanoma, 24.8 µM; in the test on BT-549 breast, 44.8 µM. For the same compound, the TGI with TK-10 renal was 90.9 µM; with NCI/ADR-RES ovarian, more than 100 µM; with ACHN renal, more than 100 µM; in the test on HS 578T breast, more than 100 µM; with A549 NSCLC, more than 100 µM; in the test with SF-268 CNS it was more than 100 µM. Further, the TGI in the test with MDA-MB-231 breast was more than 100 µM; with MOLT-4 leukemia it was 47 µM; with UACC-62 melanoma, 61.1 µM; in the test with BT-549 breast, more than 100 µM.

Turning to `Cc1ccccc1N=Nc1c(O)[nH]c2ccccc12`, the TGI in the test with TK-10 renal, with NCI/ADR-RES ovarian, with ACHN renal, in the test with HS 578T breast, in the test on A549 NSCLC and with SF-268 CNS was more than 100 µM throughout. Also, the TGI with MDA-MB-231 breast, with MOLT-4 leukemia, in the test on UACC-62 melanoma and in the test with BT-549 breast was more than 100 µM in each case.

With `N#Cc1c(-c2ccccc2)cc(-c2ccccc2)n(CCCCC(=O)NO)c1=O`, the GI50 is 2.5 µM with TK-10 renal; 0.703 µM with NCI/ADR-RES ovarian; 2.32 µM in the test with ACHN renal; 2.03 µM in the test with HS 578T breast; 3.29 µM in the test on A549 NSCLC; 2.71 µM in the test on SF-268 CNS. Further, the GI50 in the test on MDA-MB-231 breast was 3.27 µM; with MOLT-4 leukemia, 1.84 µM; in the test with UACC-62 melanoma, 2.2 µM; in the test on BT-549 breast, 3.65 µM. The TGI came out at 11.2 µM in the test with TK-10 renal; 3.18 µM in the test with NCI/ADR-RES ovarian; 7.91 µM in the test on ACHN renal; 8.18 µM with HS 578T breast; 15.7 µM with A549 NSCLC; 7.9 µM in the test on SF-268 CNS. Moreover, the TGI in the test with MDA-MB-231 breast amounted to 10.1 µM; with MOLT-4 leukemia, 8.83 µM; in the test on UACC-62 melanoma, 6.02 µM; in the test with BT-549 breast, 16.4 µM.

For the compound `CCOC(=O)C1=C(C)NC(=O)NC1c1coc2cc(C)cc(C)c2c1=O` (stereo not drawn), the TGI with TK-10 renal, in the test on NCI/ADR-RES ovarian, with ACHN renal, in the test with HS 578T breast, in the test with A549 NSCLC and with SF-268 CNS was more than 100 µM each time. Further, the TGI in the test with MDA-MB-231 breast, in the test with MOLT-4 leukemia, in the test on UACC-62 melanoma and with BT-549 breast was more than 100 µM throughout.

As to `O=C(CCCc1ccccn1)c1ccccc1`, the TGI with TK-10 renal, in the test on NCI/ADR-RES ovarian, in the test with ACHN renal, in the test on HS 578T breast, with A549 NSCLC and with SF-268 CNS was more than 100 µM throughout. For the same compound, the TGI with MDA-MB-231 breast, in the test with MOLT-4 leukemia, with UACC-62 melanoma and in the test on BT-549 breast was more than 100 µM in each case.

Regarding `COc1ccc(-c2cc(/C=C3\C(=O)Nc4ccc(OC)cc43)[nH]n2)cc1`, the GI50 with TK-10 renal was more than 100 µM; in the test with NCI/ADR-RES ovarian, 31.8 µM; in the test with ACHN renal, more than 100 µM; with HS 578T breast it was 16.8 µM; with A549 NSCLC, more than 100 µM; in the test on SF-268 CNS, 27.4 µM. Besides, the GI50 in the test with MDA-MB-231 breast is more than 100 µM; in the test with MOLT-4 leukemia, more than 100 µM; in the test on UACC-62 melanoma it was 6.43 µM; with BT-549 breast it was more than 100 µM. Further, the TGI with TK-10 renal, in the test with NCI/ADR-RES ovarian, in the test on ACHN renal, with HS 578T breast, in the test on A549 NSCLC and in the test on SF-268 CNS was more than 100 µM in each case. For the same compound, the TGI in the test on MDA-MB-231 breast, in the test with MOLT-4 leukemia, in the test with UACC-62 melanoma and in the test with BT-549 breast was more than 100 µM each time.

Take `O=C(c1cccs1)c1c(C(F)(F)F)n([O-])c2ccc(F)cc2[n+]1=O`: the GI50 is 1.41 µM with TK-10 renal; 2.36 µM in the test on NCI/ADR-RES ovarian; 1.5 µM in the test on ACHN renal; 1.67 µM in the test on HS 578T breast; 2.32 µM with A549 NSCLC; 1.5 µM in the test with MDA-MB-231 breast. In addition, the GI50 with MOLT-4 leukemia was 0.3 µM; in the test with UACC-62 melanoma it was 1.41 µM; in the test with BT-549 breast, 0.815 µM. For the same compound, the TGI in the test on TK-10 renal stood at 3.06 µM; with NCI/ADR-RES ovarian it was 6.33 µM; in the test on ACHN renal, 2.82 µM; with HS 578T breast, 6.71 µM; in the test with A549 NSCLC, 7.02 µM; with MDA-MB-231 breast, 3.1 µM. The TGI in the test with MOLT-4 leukemia was 1.02 µM; in the test with UACC-62 melanoma it was 2.81 µM; with BT-549 breast, 2.6 µM.

As for `COc1cccc(C2NC(=S)NC(C)=C2C(=O)Nc2ccc(F)c(Cl)c2)c1` (stereo not drawn), the GI50 in the test on TK-10 renal was 30.1 µM; with NCI/ADR-RES ovarian it was 18.2 µM; in the test with ACHN renal, 23.8 µM; with HS 578T breast, 13.5 µM; in the test with A549 NSCLC it was 20.8 µM; in the test with SF-268 CNS, 28.7 µM. In addition, the values for the GI50 in the test on MDA-MB-231 breast, in the test with UACC-62 melanoma and in the test on BT-549 breast were 29 µM, 29.3 µM and 15.2 µM, respectively. Besides, the TGI with TK-10 renal was more than 50 µM; in the test with NCI/ADR-RES ovarian, more than 50 µM; with ACHN renal, more than 50 µM; with HS 578T breast it was 40.2 µM; in the test on A549 NSCLC it was more than 50 µM; in the test on SF-268 CNS it was more than 50 µM. The TGI in the test on MDA-MB-231 breast is more than 50 µM; in the test with UACC-62 melanoma it was more than 50 µM; in the test on BT-549 breast, 46.1 µM.

For the compound `COc1cc([C@@H]2c3cc4c(cc3[C@@H](O[C@@H]3O[C@@H]5CO[C@@H](c6cccs6)O[C@H]5[C@H](O)[C@H]3O)[C@H]3COC(=O)[C@H]23)OCO4)cc(OC)c1O`, the GI50 is 19 µM in the test on NCI/ADR-RES ovarian; 2.03 µM in the test with HS 578T breast; 0.0969 µM in the test on A549 NSCLC; 0.266 µM with SF-268 CNS; 1.56 µM in the test with MDA-MB-231 breast; 0.0313 µM in the test with MOLT-4 leukemia. The GI50 with UACC-62 melanoma is 0.233 µM; with BT-549 breast, 0.344 µM. For the same compound, the TGI is more than 100 µM with NCI/ADR-RES ovarian; 3.69 µM in the test on ACHN renal; 15.3 µM in the test with HS 578T breast; 2.56 µM in the test with A549 NSCLC; 7.2 µM with SF-268 CNS; 7.43 µM in the test with MDA-MB-231 breast. The results for the TGI in the test on UACC-62 melanoma and in the test on BT-549 breast were 3.3 µM and 4.37 µM, respectively.

Regarding `NCC1OC(OC2C(CO)OC(OC3C(O)C(N)CC(N)C3OC3OC(CO)C(O)C(O)C3N)C2O)C(N)C(O)C1O` (stereo not drawn), the GI50 with TK-10 renal, with NCI/ADR-RES ovarian, in the test on ACHN renal, in the test with HS 578T breast, in the test with A549 NSCLC and with SF-268 CNS was more than 50 µg/mL each time. Besides, the GI50 in the test with MDA-MB-231 breast, with UACC-62 melanoma and in the test with BT-549 breast was more than 50 µg/mL each time. Also, the TGI with TK-10 renal, in the test with NCI/ADR-RES ovarian, in the test on ACHN renal, in the test with HS 578T breast, with A549 NSCLC and with SF-268 CNS was more than 50 µg/mL throughout. Besides, the TGI in the test with MDA-MB-231 breast, in the test on UACC-62 melanoma and with BT-549 breast was more than 50 µg/mL in each case.
